Reference: patent EP0490919B1, “CYTOPROTECTIVE COMPOUNDS BEARING UNSATURATED HYDROCARBON GROUPS HAVING 16 TO 20 CARBON ATOMS” (VIRGINIA COMMONWEALTH UNIVERSITY, priority 1989, dated 1991)
Counter-ions that a name gives are not always drawn.

Assays:
PLA2 = test: Anti-PLA2 activity (Table 6); type: biochemical; conditions: read-out: IC-50 Anti-PLA2 Activity
[1] = Anti-oxidant activity (Table 6); conditions: read-out: IC-50 Anti-Oxidant Activity; nd = not detectable at ≤ 500 uM

SMILES | IC50 (PLA2) [µM] | IC50 [1] [µM]
CCCCC/C=C\C/C=C\CCCCCCCC(=O)OC(C(=O)O)C(OC(=O)CCCCCCC/C=C\C/C=C\CCCCC)C(=O)O (centres unmarked) [PX-9] | 7.5 | 100
CCCCCCCC/C=C\CCCCCCCC(=O)OCC(N)(COC(=O)CCCCCCC/C=C\CCCCCCCC)COC(=O)CCCCCCC/C=C\CCCCCCCC [PX-12, P-Toluene Sulfonate Salt of Tris Trioleate] | 1.5 | 50
CCCCCCCC/C=C\CCCCCCCC(=O)OCC(COC(=O)CCCCCCC/C=C\CCCCCCCC)(COC(=O)CCCCCCC/C=C\CCCCCCCC)NCCS(=O)(=O)O [PX-13, TES Trioleate] | 2.2 | 60
CCCCC/C=C\C/C=C\CCCCCCCC(=O)OCC1(COC(=O)CCCCCCC/C=C\C/C=C\CCCCC)COC(=O)CN1C(=O)CCCCCCC/C=C\C/C=C\CCCCC [PX-15] | 19.2 | 
CCCCCCCC/C=C\CCCCCCCC(=O)OC(C(=O)O)C(OC(=O)CCCCCCC/C=C\CCCCCCCC)C(=O)O (centres unmarked) [PX-10] | 7 | 60
CCCCCCCC/C=C\CCCCCCCC(=O)OCC1(COC(=O)CCCCCCC/C=C\CCCCCCCC)COC(=O)CN1C(=O)CCCCCCC/C=C\CCCCCCCC [PX-11, Tricinyl Trioleate] | 2.6 | 145
